# System: 454973-116-R2-J3-PDC spheroids, viability, % test/control
# Test: Anticancer human tumor 454973-116-R2-J3-PDC patient-derived pancreatic carcinoma cell line growth inhibition [GQUAD]
# Details: spheroids with HUVEC and MSC; for IC50: curve of first compound; for viability, T/C: stronger effect = lower value
# Procedure, shortened: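 Multi-cell-type spheroids of tumor cells with HUVEC and mesenchymal stem cells, treated with drug combinations. Concentrations descend in half-log steps from near clinical Cmax, or from 10 microM where Cmax is unknown; viability read-out.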
# 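Note: spheroids exposed to compounds for seven days.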
# 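Throughout, for viability, T/C: 100% = DMSO vehicle control viability.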
smiles,measurement,setting,value
Cc1cccc(N(C)C(=O)C2C(O)CCN2c2nc(C)cc(C(F)(F)F)c2C#N)c1 (configuration not stated) + CN(C)c1ccc(Nc2c3ccc(NC(=O)CCN4CCCC4)cc3nc3cc(NC(=O)CCN4CCCC4)ccc23)cc1,IC50,second compound 0.0316 µM,> 10 µM
same,IC50,second compound 0.1 µM,> 10 µM
same,IC50,second compound 0.316 µM,> 10 µM
same,IC50,second compound 1 µM,> 10 µM
same,IC50,second compound 3.16 µM,> 10 µM
same,IC50,second compound 10 µM,> 10 µM
same,"viability, T/C","second compound 0.0316 µM, first compound 0.0316 µM",106%
same,"viability, T/C","second compound 0.0316 µM, first compound 0.1 µM",102%
same,"viability, T/C","second compound 0.0316 µM, first compound 0.316 µM",103%
same,"viability, T/C","second compound 0.0316 µM, first compound 1 µM",98.1%
same,"viability, T/C","second compound 0.0316 µM, first compound 3.16 µM",109%
same,"viability, T/C","second compound 0.0316 µM, first compound 10 µM",100%
same,"viability, T/C","second compound 0.1 µM, first compound 0.0316 µM",102%
same,"viability, T/C","second compound 0.1 µM, first compound 0.1 µM",106%
same,"viability, T/C","second compound 0.1 µM, first compound 0.316 µM",98.6%
same,"viability, T/C","second compound 0.1 µM, first compound 1 µM",98%
same,"viability, T/C","second compound 0.1 µM, first compound 3.16 µM",92.6%
same,"viability, T/C","second compound 0.1 µM, first compound 10 µM",105%
same,"viability, T/C","second compound 0.316 µM, first compound 0.0316 µM",102%
same,"viability, T/C","second compound 0.316 µM, first compound 0.1 µM",92.9%
same,"viability, T/C","second compound 0.316 µM, first compound 0.316 µM",97.7%
same,"viability, T/C","second compound 0.316 µM, first compound 1 µM",103%
same,"viability, T/C","second compound 0.316 µM, first compound 3.16 µM",93.9%
same,"viability, T/C","second compound 0.316 µM, first compound 10 µM",93.8%
same,"viability, T/C","second compound 1 µM, first compound 0.0316 µM",93.4%
same,"viability, T/C","second compound 1 µM, first compound 0.1 µM",99.8%
same,"viability, T/C","second compound 1 µM, first compound 0.316 µM",92%
same,"viability, T/C","second compound 1 µM, first compound 1 µM",77.8%
same,"viability, T/C","second compound 1 µM, first compound 3.16 µM",92%
same,"viability, T/C","second compound 1 µM, first compound 10 µM",100%
same,"viability, T/C","second compound 3.16 µM, first compound 0.0316 µM",92.5%
same,"viability, T/C","second compound 3.16 µM, first compound 0.1 µM",90%
same,"viability, T/C","second compound 3.16 µM, first compound 0.316 µM",85%
same,"viability, T/C","second compound 3.16 µM, first compound 1 µM",70.4%
same,"viability, T/C","second compound 3.16 µM, first compound 3.16 µM",86.1%
same,"viability, T/C","second compound 3.16 µM, first compound 10 µM",84.4%
same,"viability, T/C","second compound 10 µM, first compound 0.0316 µM",74%
same,"viability, T/C","second compound 10 µM, first compound 0.1 µM",74.7%
same,"viability, T/C","second compound 10 µM, first compound 0.316 µM",60.5%
same,"viability, T/C","second compound 10 µM, first compound 1 µM",72.4%
same,"viability, T/C","second compound 10 µM, first compound 3.16 µM",74.5%
same,"viability, T/C","second compound 10 µM, first compound 10 µM",65.1%
